Results published in article PMC6541351, “Towards the preparation of synthetic outer membrane vesicle models with micromolar affinity to wheat germ agglutinin using a dialkyl thioglycoside” (Beilstein Journal of Organic Chemistry, 2019).

Target: T1, wheat germ agglutinin (WGA)
T1 construct: horseradish peroxidase-labelled WGA (WGA-HRP); homodimer
Assay: competitive enzyme-linked lectin assay (ELLA), WGA-HRP vs PAA-GlcNAc
Assay type: binding, Triticum aestivum

Work on `CC(=O)N[C@H]1C(O)O[C@H](CO)[C@@H](O)[C@@H]1O` (stereo partly shown) [GlcNAc] yielded an IC50 of 35 mM.
